For 38 compounds, IC50 and Activity results are on record in ChEMBL document CHEMBL5120838, “Synthesis and biological evaluation of geniposide derivatives as inhibitors of hyperuricemia, inflammatory and fibrosis” (Eur J Med Chem, 2022).

One may read the IC50 as the concentration at which inhibition is half-maximal.

Assay [1] concerns the target Xanthine dehydrogenase/oxidase (Bos taurus, UniProt P80457). Nature of the assay: Inhibition of bovine XOD assessed as inhibition of uric acid formation using xanthine as substrate preincubated with enzyme for 5 mins followed by substrate addition and measured for 30 mins by microplate reader analysis.
For assay [2], the system named is Mus musculus. Nature of the assay: Nephroprotective activity against adenine and potassium oxonate-induced hyperuricemia Kunming mouse model assessed as reduction in neutrophils infiltrations at 20 mg/kg, po administered via gavage and measured after 21 days by hematoxylin-eosin and Masson trichrome staining based optical microscopic analysis. The format is functional, organism-based. The note with it: time 21.0 day.

The subject of assay [3] is Mus musculus. Nature of the assay: Nephroprotective activity against adenine and potassium oxonate-induced hyperuricemia Kunming mouse model assessed as appearance of clear tubular structures at 20 mg/kg, po administered via gavage and measured after 21 days by hematoxylin-eosin and Masson trichrome staining based optical microscopic analysis. The format is functional, organism-based. The note with it: time 21.0 day.

Assay [4] concerns Mus musculus. Nature of the assay: Anti-hyperuricemic activity against adenine and potassium oxonate-induced hyperuricemia Kunming mouse model assessed as blood urea nitrogen level at 20 mg/kg, po administered via gavage once daily for 2 weeks (reference value: 9.88 +/- 1.21 mM). The assay is classed as functional.
Assay [5] relates to Mus musculus. Nature of the assay: Anti-hyperuricemic activity against adenine and potassium oxonate-induced hyperuricemia Kunming mouse model assessed as reduction in serum uric acid level at 20 mg/kg, po administered via gavage once daily for 2 weeks (reference value: 318.16 +/- 3.31 uM). The assay is classed as functional.
The subject of assay [6] is Mus musculus. Nature of the assay: Nephroprotective activity against adenine and potassium oxonate-induced hyperuricemia Kunming mouse model assessed as reduction in tubular-interstitial lesion development at 20 mg/kg, po administered via gavage and measured after 21 days by hematoxylin-eosin and Masson trichrome staining based optical microscopic analysis. The format is functional, organism-based. The note with it: time 21.0 day.

Assay [7] relates to Mus musculus. Nature of the assay: Nephroprotective activity against adenine and potassium oxonate-induced hyperuricemia Kunming mouse model assessed as reduction in renal tubule dilation at 20 mg/kg, po administered via gavage and measured after 21 days by hematoxylin-eosin and Masson trichrome staining based optical microscopic analysis. The assay is classed as functional, organism-based. The note with it: time 21.0 day.

In assay [8] the test system is Mus musculus. Nature of the assay: Nephroprotective activity against adenine and potassium oxonate-induced hyperuricemia Kunming mouse model assessed as reduction in cytoplasmic vacuolation of renal tubular epithelial cells at 20 mg/kg, po administered via gavage and measured after 21 days by hematoxylin-eosin and Masson trichrome staining based optical microscopic analysis. The format is functional, organism-based. As to conditions: time 21.0 day.

For assay [9], the system named is Mus musculus. Nature of the assay: Nephroprotective activity against adenine and potassium oxonate-induced hyperuricemia Kunming mouse model assessed as reduction in connective tissue hyperplasia at 20 mg/kg, po administered via gavage and measured after 21 days by hematoxylin-eosin and Masson trichrome staining based optical microscopic analysis. As to conditions: time 21.0 day. The assay is classed as functional, organism-based.

Assay [10] concerns Mus musculus. Nature of the assay: Anti-hyperuricemic activity against adenine and potassium oxonate-induced hyperuricemia Kunming mouse model assessed as reduction in serum creatinine level at 20 mg/kg, po administered via gavage once daily for 2 weeks (reference value: 87.62 +/- 0.67 uM). The format is functional.

Active and inactive are the calls of the source. No cut-off for these calls is given here.

Chain of Xanthine dehydrogenase/oxidase (P80457 whole entry): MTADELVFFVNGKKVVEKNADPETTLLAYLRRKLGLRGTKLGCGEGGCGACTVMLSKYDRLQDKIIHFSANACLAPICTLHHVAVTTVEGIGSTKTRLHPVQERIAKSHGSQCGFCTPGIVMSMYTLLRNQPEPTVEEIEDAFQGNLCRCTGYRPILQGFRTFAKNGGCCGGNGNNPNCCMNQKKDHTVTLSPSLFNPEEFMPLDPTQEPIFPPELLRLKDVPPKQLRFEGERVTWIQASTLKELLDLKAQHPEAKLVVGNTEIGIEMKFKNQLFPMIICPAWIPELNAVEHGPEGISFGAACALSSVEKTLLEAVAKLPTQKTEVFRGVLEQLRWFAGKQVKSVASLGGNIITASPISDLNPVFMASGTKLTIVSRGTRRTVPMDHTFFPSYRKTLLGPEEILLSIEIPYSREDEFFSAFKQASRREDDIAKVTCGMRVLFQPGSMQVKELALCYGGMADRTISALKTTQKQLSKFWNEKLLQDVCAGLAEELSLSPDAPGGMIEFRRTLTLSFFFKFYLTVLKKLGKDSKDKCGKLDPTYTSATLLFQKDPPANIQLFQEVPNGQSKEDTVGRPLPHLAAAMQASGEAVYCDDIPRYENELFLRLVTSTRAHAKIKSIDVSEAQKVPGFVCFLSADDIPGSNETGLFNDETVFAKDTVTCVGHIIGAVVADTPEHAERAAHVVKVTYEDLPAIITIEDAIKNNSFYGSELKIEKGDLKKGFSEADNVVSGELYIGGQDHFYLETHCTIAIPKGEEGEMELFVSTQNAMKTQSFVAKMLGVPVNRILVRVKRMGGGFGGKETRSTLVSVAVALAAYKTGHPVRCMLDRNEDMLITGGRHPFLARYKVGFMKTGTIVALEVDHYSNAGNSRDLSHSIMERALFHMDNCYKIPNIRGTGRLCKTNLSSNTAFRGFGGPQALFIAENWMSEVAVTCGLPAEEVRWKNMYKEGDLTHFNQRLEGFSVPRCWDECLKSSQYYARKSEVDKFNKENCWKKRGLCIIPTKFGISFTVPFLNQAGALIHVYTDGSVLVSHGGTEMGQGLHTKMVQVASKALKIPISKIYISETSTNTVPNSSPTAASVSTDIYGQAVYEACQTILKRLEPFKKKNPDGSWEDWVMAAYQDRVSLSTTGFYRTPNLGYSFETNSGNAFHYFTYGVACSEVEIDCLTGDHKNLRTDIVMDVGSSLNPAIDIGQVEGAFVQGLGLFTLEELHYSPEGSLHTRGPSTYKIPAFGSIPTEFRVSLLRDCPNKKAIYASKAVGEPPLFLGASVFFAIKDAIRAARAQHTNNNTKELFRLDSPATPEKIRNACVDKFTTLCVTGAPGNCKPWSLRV

Consider `COC(=O)C1=COC(OC(=O)NCCCCl)[C@@H]2C(COC(=O)NCCCCl)=CC[C@H]12` (stereo partly specified), for which, in assay [1], the IC50 is 48.8 µM.

Regarding `O=C(O)C1=CO[C@@H](O[C@@H]2O[C@H](CO)[C@@H](O)[C@H](O)[C@H]2O)[C@@H]2C(CO)=CC[C@H]12` [GENIPOSIDIC ACID], the IC50 in assay [1] is 62.2 µM.

`CC(=O)OCC1=CC[C@@H]2C(C(=O)Sc3ncc[nH]3)=CO[C@@H](O[C@@H]3O[C@H](COC(C)=O)[C@@H](OC(C)=O)[C@H](OC(C)=O)[C@H]3OC(C)=O)[C@H]12`: the IC50 in assay [1] stood at 87.5 µM.

For `COC(=O)C1=COC(OC(=O)Nc2ccc(OC)cc2)[C@@H]2C(COC(=O)Nc3ccc(OC)cc3)=CC[C@H]12` (stereo partly specified), the IC50 in assay [1] was 12.8 µM. With `CC(=O)OCC1=CC[C@@H]2C(C(=O)Nc3ccc(C(=O)O)cc3)=CO[C@@H](O[C@@H]3O[C@H](COC(C)=O)[C@@H](OC(C)=O)[C@H](OC(C)=O)[C@H]3OC(C)=O)[C@H]12`, the IC50 in assay [1] was determined as 32.4 µM. In the case of `CC(=O)OCC1=CC[C@@H]2C(C(=O)Oc3cncc4ccccc34)=CO[C@@H](O[C@@H]3O[C@H](COC(C)=O)[C@@H](OC(C)=O)[C@H](OC(C)=O)[C@H]3OC(C)=O)[C@H]12`, the IC50 in assay [1] is 30.7 µM.

As to `CC(C)(C)C(=O)OCC1=CC[C@@H]2C(C(=O)O)=CO[C@@H](O[C@@H]3O[C@H](COC(=O)C(C)(C)C)[C@@H](OC(=O)C(C)(C)C)[C@H](OC(=O)C(C)(C)C)[C@H]3OC(=O)C(C)(C)C)[C@H]12`, in assay [1], the IC50 amounted to 91.2 µM.

Regarding `CC(=O)OCC1=CC[C@@H]2C(C(=O)On3cccn3)=CO[C@@H](O[C@@H]3O[C@H](COC(C)=O)[C@@H](OC(C)=O)[C@H](OC(C)=O)[C@H]3OC(C)=O)[C@H]12`, the IC50 in assay [1] stood at 8.74 µM. In the case of `CCC(=O)OCC1=CC[C@@H]2C(C(=O)O)=CO[C@@H](O[C@@H]3O[C@H](COC(=O)CC)[C@@H](OC(=O)CC)[C@H](OC(=O)CC)[C@H]3OC(=O)CC)[C@H]12`, in assay [1], the IC50 was 48.8 µM. In the case of `CC(=O)OCC1=CC[C@@H]2C(C(=O)Nc3cccc(F)c3)=CO[C@@H](O[C@@H]3O[C@H](COC(C)=O)[C@@H](OC(C)=O)[C@H](OC(C)=O)[C@H]3OC(C)=O)[C@H]12`, the IC50 in assay [1] is 28.8 µM. `CC(=O)OCC1=CC[C@@H]2C(C(=O)O)=CO[C@@H](O[C@@H]3O[C@H](COC(C)=O)[C@@H](OC(C)=O)[C@H](OC(C)=O)[C@H]3OC(C)=O)[C@H]12`: the IC50 in assay [1] came to 35.3 µM.

Take `COC(=O)C1=COC(OC(=O)NC(C)C)[C@@H]2C(COC(=O)NC(C)C)=CC[C@H]12` (stereo partly specified): the IC50 in [1] is 80.2 µM. In the case of `CC(=O)OCC1=CC[C@@H]2C(C(=O)SC3=NCCS3)=CO[C@@H](O[C@@H]3O[C@H](COC(C)=O)[C@@H](OC(C)=O)[C@H](OC(C)=O)[C@H]3OC(C)=O)[C@H]12`, the IC50 in assay [1] was 12.6 µM.

For `CC(=O)OCC1=CC[C@@H]2C(C(=O)Sc3ccncc3)=CO[C@@H](O[C@@H]3O[C@H](COC(C)=O)[C@@H](OC(C)=O)[C@H](OC(C)=O)[C@H]3OC(C)=O)[C@H]12`, the IC50 in [1] stood at 20.5 µM. Consider `CC(=O)OCC1=CC[C@@H]2C(C(=O)Nc3ccc(C(=O)NCC(=O)O)cc3)=CO[C@@H](O[C@@H]3O[C@H](COC(C)=O)[C@@H](OC(C)=O)[C@H](OC(C)=O)[C@H]3OC(C)=O)[C@H]12`, for which the IC50 in assay [1] was 73.6 µM. Consider `COC(=O)C1=CO[C@@H](O[C@@H]2O[C@H](CO)[C@@H](O)[C@H](O)[C@H]2O)[C@H]2[C@@H]1CC1OC12CO` (stereo partly specified), for which, in [1], the IC50 amounted to 165 µM.

With `CC(=O)OCC1=CC[C@@H]2C(C(=O)Nc3cncc4ccccc34)=CO[C@@H](O[C@@H]3O[C@H](COC(C)=O)[C@@H](OC(C)=O)[C@H](OC(C)=O)[C@H]3OC(C)=O)[C@H]12`, in assay [1], the IC50 amounted to 18.5 µM. In the case of `COC(=O)C1=COC(OC(=O)NC(C)(C)C)[C@@H]2C(COC(=O)NC(C)(C)C)=CC[C@H]12` (stereo partly specified), in [1], the IC50 was determined as 104 µM. Take `CC(=O)OCC1=CC[C@@H]2C(C(=O)SCc3ccccc3)=CO[C@@H](O[C@@H]3O[C@H](COC(C)=O)[C@@H](OC(C)=O)[C@H](OC(C)=O)[C@H]3OC(C)=O)[C@H]12`: the IC50 in [1] turned out to be 181 µM. Regarding `CCCC(=O)OCC1=CC[C@@H]2C(C(=O)O)=CO[C@@H](O[C@@H]3O[C@H](COC(=O)CCC)[C@@H](OC(=O)CCC)[C@H](OC(=O)CCC)[C@H]3OC(=O)CCC)[C@H]12`, the IC50 in assay [1] is 55.7 µM. The same measure, in the same setting: in the case of `COC(=O)C1=COC(OC(=O)Nc2ccccc2Br)[C@@H]2C(COC(=O)Nc3ccccc3Br)=CC[C@H]12` (stereo partly specified) it was 23.9 µM; in that of `CC(=O)OCC1=CC[C@@H]2C(C(=O)Nc3cccc4[nH]ccc34)=CO[C@@H](O[C@@H]3O[C@H](COC(C)=O)[C@@H](OC(C)=O)[C@H](OC(C)=O)[C@H]3OC(C)=O)[C@H]12`, 17.5 µM. On to `CCNC(=O)OCC1=CC[C@@H]2C(C(=O)OC)=COC(OC(=O)NCC)[C@H]12` (stereo partly specified), for which the IC50 in assay [1] is 61.2 µM. The same measure, in the same setting: in the case of `CC(=O)OCC1=CC[C@@H]2C(C(=O)Nc3nn[nH]n3)=CO[C@@H](O[C@@H]3O[C@H](COC(C)=O)[C@@H](OC(C)=O)[C@H](OC(C)=O)[C@H]3OC(C)=O)[C@H]12` it was 63.9 µM. For `CC(=O)OCC1=CC[C@@H]2C(C(=O)Nc3ccc(Br)c4ccccc34)=CO[C@@H](O[C@@H]3O[C@H](COC(C)=O)[C@@H](OC(C)=O)[C@H](OC(C)=O)[C@H]3OC(C)=O)[C@H]12`, the IC50 in [1] turned out to be 4.14 µM. Moreover, the outcome in assay [2], in assay [3], in assay [6], in [7], in assay [8] and in assay [9] was Active. In addition, the figures for the Activity in assay [4], in [5] and in assay [10] were 6.02 mM, 242.83 µM and 57.83 µM, respectively. In the case of `COC(=O)C1=COC(O)[C@@H]2C(CO)=CC[C@H]12` (stereo partly specified), in assay [1], the IC50 was 93.4 µM. As to `CC(=O)OCC1=CC[C@@H]2C(C(=O)Nc3ccccc3-c3ccccc3)=CO[C@@H](O[C@@H]3O[C@H](COC(C)=O)[C@@H](OC(C)=O)[C@H](OC(C)=O)[C@H]3OC(C)=O)[C@H]12`, the half-maximal inhibitory concentration (IC50) in [1] came to 75.5 µM.

As to `CC(C)CC(=O)OCC1=CC[C@@H]2C(C(=O)O)=CO[C@@H](O[C@@H]3O[C@H](COC(=O)CC(C)C)[C@@H](OC(=O)CC(C)C)[C@H](OC(=O)CC(C)C)[C@H]3OC(=O)CC(C)C)[C@H]12`, the IC50 in [1] came to 69.7 µM. As for `CC(=O)OCC1=CC[C@@H]2C(C(=O)Sc3cccs3)=CO[C@@H](O[C@@H]3O[C@H](COC(C)=O)[C@@H](OC(C)=O)[C@H](OC(C)=O)[C@H]3OC(C)=O)[C@H]12`, the IC50 in [1] was determined as 22.8 µM. Turning to `COC(=O)C1=COC(OC(=O)NC2CCCCC2)[C@@H]2C(COC(=O)NC3CCCCC3)=CC[C@H]12` (stereo partly specified), in assay [1], the IC50 turned out to be 281 µM.

For `CC(=O)OCC1=CC[C@@H]2C(C(=O)Nn3ncc4ccccc43)=CO[C@@H](O[C@@H]3O[C@H](COC(C)=O)[C@@H](OC(C)=O)[C@H](OC(C)=O)[C@H]3OC(C)=O)[C@H]12`, in assay [1], the IC50 stood at 22.8 µM. Turning to `CC(=O)OCC1=CC[C@@H]2C(C(=O)NCc3ccncc3)=CO[C@@H](O[C@@H]3O[C@H](COC(C)=O)[C@@H](OC(C)=O)[C@H](OC(C)=O)[C@H]3OC(C)=O)[C@H]12`, the IC50 in [1] is 36.6 µM. For `CC(=O)OCC1=CC[C@@H]2C(C(=O)Nn3cccc3)=CO[C@@H](O[C@@H]3O[C@H](COC(C)=O)[C@@H](OC(C)=O)[C@H](OC(C)=O)[C@H]3OC(C)=O)[C@H]12`, the IC50 in assay [1] is 2.15 µM. Further, the result in assay [2], in assay [3], in [6], in assay [7], in assay [8] and in [9] was Active. The Activity turned out to be 6.42 mM in [4], 263.03 µM in assay [5] and 65.57 µM in [10]. `COC(=O)C1=COC(OC(=O)Nc2ccc(C)cc2)[C@@H]2C(COC(=O)Nc3ccc(C)cc3)=CC[C@H]12` (stereo partly specified): the IC50 in assay [1] was determined as 73.6 µM. For `CC(=O)OCC1=CC[C@@H]2C(C(=O)Oc3cccc(C#N)c3)=CO[C@@H](O[C@@H]3O[C@H](COC(C)=O)[C@@H](OC(C)=O)[C@H](OC(C)=O)[C@H]3OC(C)=O)[C@H]12`, the IC50 in assay [1] came to 5.15 µM.

Take `CC(=O)OCC1=CC[C@@H]2C(C(=O)Oc3ccncc3)=CO[C@@H](O[C@@H]3O[C@H](COC(C)=O)[C@@H](OC(C)=O)[C@H](OC(C)=O)[C@H]3OC(C)=O)[C@H]12`: in assay [1], the IC50 was 9.15 µM.

Take `CC(=O)OCC1=CC[C@@H]2C(C(=O)NCCC#N)=CO[C@@H](O[C@@H]3O[C@H](COC(C)=O)[C@@H](OC(C)=O)[C@H](OC(C)=O)[C@H]3OC(C)=O)[C@H]12`: the IC50 in assay [1] came to 15.8 µM.

`COC(=O)C1=COC(OC(=O)Nc2cccc(C)c2)[C@@H]2C(COC(=O)Nc3cccc(C)c3)=CC[C@H]12` (stereo partly specified): the IC50 in assay [1] was determined as 140 µM.
